This passage reports carcinogen call results from PubChem BioAssay AID1259411 (Chemical Carcinogenesis Research Information System (CCRIS), 2018).

The data set has as its system rodent carcinogenicity bioassays, tumor incidence. The experiment in a line: CCRIS carcinogenicity studies. The method, boiled down: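 Archive of carcinogenicity, mutagenicity, tumor promotion and tumor inhibition results drawn from journals, NCI reports and other sources, expert-reviewed; covers 1985-2011 and is no longer updated.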

Activity calls are given as the source filed them. The rule behind the calls is not given here.

In the case of `ClC1=C(Cl)[C@]2(Cl)C3C(Cl)C(Cl)CC3[C@@]1(Cl)C2(Cl)Cl` (some centres not stated), the carcinogen call reads like this: (Species: MOUSE, Strain/Sex: B6C3F1/FEMALE, Route: ORAL, Dose: 0, 30.1, 63.8 PPM IN DIET, TWA, Dose: 0, 30.1, 63.8 PPM IN DIET, TWA, Tumor Site: Type of Lesion: LIVER: HEPATOCELLULAR CARCINOMA) “active; positive”; (Species: MOUSE, Strain/Sex: B6C3F1/MALE, Route: ORAL, Dose: 0, 29.9, 56.2 PPM IN DIET, TWA, Dose: 0, 29.9, 56.2 PPM IN DIET, TWA, Tumor Site: Type of Lesion: LIVER: HEPATOCELLULAR CARCINOMA) “active; positive”; (Species: MOUSE, Strain/Sex: B6C3F1/MALE, Route: ORAL, Dose: 0, 55 PPM IN DIET BEGINNING AT 63 D OF AGE, AT 8 MO OF AGE DOSE INCREASED TO 60 PPM AND CONTINUED UNTIL 491 D OF AGE (ST, Tumor Site: Type of Lesion: LIVER: HEPATOCELLULAR ADENOMA, HEPATOCELLULAR CARCINOMA) “active; positive”; (Species: MOUSE, Strain/Sex: B6C3F1/MALE, Route: ORAL, Dose: 0, 55 PPM IN DIET BEGINNING AT 63 D OF AGE, AT 8 MO OF AGE DOSE WAS INCREASED TO 60 PPM FOR DURATION OF STUDY (STUDY DUR, Tumor Site: Type of Lesion: LIVER: HEPATOCELLULAR ADENOMA, HEPATOCELLULAR CARCINOMA) “active; positive”; (Species: MOUSE, Strain/Sex: B6D2F1/MALE, Route: ORAL, Dose: 0, 55 PPM IN DIET BEGINNING AT 63 D OF AGE, AT 8 MO OF AGE DOSE INCREASED TO 60 PPM AND CONTINUED UNTIL 491 D OF AGE (ST, Tumor Site: Type of Lesion: LIVER: HEPATOCELLULAR ADENOMA, HEPATOCELLULAR CARCINOMA) “active; positive”; (Species: MOUSE, Strain/Sex: B6D2F1/MALE, Route: ORAL, Dose: 0, 55 PPM IN DIET BEGINNING AT 63 D OF AGE, AT 8 MO OF AGE DOSE WAS INCREASED TO 60 PPM FOR DURATION OF STUDY (STUDY DUR, Tumor Site: Type of Lesion: LIVER: HEPATOCELLULAR ADENOMA, HEPATOCELLULAR CARCINOMA) “active; positive”. Moreover, the carcinogen call is “active; positive” (Species: MOUSE, Strain/Sex: CD-1/MALE,FEMALE, Route: DIET, Dose: 0, 5, 25, 50 MG/KG FOR 18 MO, Tumor Site: Type of Lesion: LIVER: HEPATOCELLULAR CARCINOMA); “inactive; negative” (Species: RAT, Strain/Sex: OSBORNE-MENDEL/FEMALE, Route: ORAL, Dose: 0, 120.8, 241.5PPM IN DIET, TWA, Dose: 0, 120.8, 241.5PPM IN DIET, TWA); “inactive; negative” (Species: RAT, Strain/Sex: OSBORNE-MENDEL/MALE, Route: ORAL, Dose: 0, 203.5, 407.0PPM IN DIET, TWA, Dose: 0, 203.5, 407.0PPM IN DIET, TWA).

For `COS(C)(=O)=O`, the carcinogen call (Species: MOUSE, Route: INTRAPERITONEAL, Tumor Site: Type of Lesion: LUNG) is “active; positive”; the carcinogen call (Species: MOUSE, Route: ORAL, Tumor Site: Type of Lesion: LUNG, THYMUS GLAND) was “active; positive”; the carcinogen call (Species: RAT, Strain/Sex: SPRAGUE-DAWLEY/MALE, Route: INHALATION, Dose: 0, 50 PPM 6 HR/D 5 D/WK FOR 30 D (STUDY DURATION: LIFETIME), Tumor Site: Type of Lesion: NASAL CAVITY: TUMORS) was “active; positive”.

In the case of `C=CBr`, the carcinogen call (Species: RAT, Strain/Sex: SPRAGUE-DAWLEY/FEMALE, Route: INHALATION, Dose: 10, 50, 250, 1250 PPM 6 HR/D 5/WK FOR 24 MO, Dose: 10, 50, 250, 1250 PPM 6 HR/D 5/WK FOR 24 MO, Tumor Site: Type of Lesion: LIVER: ANGIOSARCOMA, EAR (ZYMBAL GLAND): SQUAMOUS CELL CARCINOMA) was “active; positive” and the carcinogen call (Species: RAT, Strain/Sex: SPRAGUE-DAWLEY/MALE, Route: INHALATION, Dose: 10, 50, 250, 1250 PPM 6 HR/D 5/WK FOR 24 MO, Dose: 10, 50, 250, 1250 PPM 6 HR/D 5/WK FOR 24 MO, Tumor Site: Type of Lesion: LIVER: ANGIOSARCOMA, EAR (ZYMBAL GLAND): PAPILLOMA, SQUAMOUS CELL CARCINOMA) is “active; positive”.

As to `CC(C)CCCCCCOC(=O)c1ccccc1C(=O)OCCCCCCC(C)C`, the carcinogen call (Species: RAT, Strain/Sex: F344/FEMALE, Route: ORAL, Dose: 0, 0.03, 0.3, 0.6% IN DIET FOR DURATION OF STUDY (STUDY DURATION: 24 MO), Dose: 0, 0.03, 0.3, 0.6% IN DIET FOR DURATION OF STUDY (STUDY DURATION: 24 MO)) is “inactive; negative” and the carcinogen call (Species: RAT, Strain/Sex: F344/MALE, Route: ORAL, Dose: 0, 0.03, 0.3, 0.6% IN DIET FOR DURATION OF STUDY (STUDY DURATION: 24 MO), Dose: 0, 0.03, 0.3, 0.6% IN DIET FOR DURATION OF STUDY (STUDY DURATION: 24 MO)) was “inactive; negative”.

Regarding `COc1ccc(C(c2ccc(OC)cc2)C(Cl)(Cl)Cl)cc1`, the carcinogen call (Species: MOUSE, Strain/Sex: B6C3F1/FEMALE, Route: ORAL, Dose: 0, 997, 1994 PPM IN DIET, TWA, Dose: 0, 997, 1994 PPM IN DIET, TWA) is “inactive; negative”; the carcinogen call (Species: MOUSE, Strain/Sex: B6C3F1/MALE, Route: ORAL, Dose: 0, 1746, 3491 PPM IN DIET, TWA, Dose: 0, 1746, 3491 PPM IN DIET, TWA) is “inactive; negative”; the carcinogen call (Species: MOUSE, Strain/Sex: BALB/MALE, Route: ORAL, Dose: 750 PPM IN DIET, Tumor Site: Type of Lesion: TESTES: INTERSTITIAL CELL CARCINOMA) is “active; positive”; the carcinogen call (Species: RAT, Strain/Sex: OSBORNE-MENDEL/FEMALE, Route: ORAL, Dose: 0, 750, 1385 PPM IN DIET, TWA, Dose: 0, 750, 1385 PPM IN DIET, TWA) was “inactive; negative”; the carcinogen call (Species: RAT, Strain/Sex: OSBORNE-MENDEL/MALE, Route: ORAL, Dose: 0, 448, 845 PPM IN DIET, TWA, Dose: 0, 448, 845 PPM IN DIET, TWA) is “inactive; negative”.

For the molecule `O=C1c2ccccc2C(=O)C1c1ccc2ccccc2n1`, the carcinogen call reads like this: (Species: RAT, Strain/Sex: F344/FEMALE, Route: ORAL, Dose: 0, 500, 1700, 5000 PPM IN DIET FOR 106 WK (STUDY DURATION: 111 WK), Dose: 0, 500, 1700, 5000 PPM IN DIET FOR 106 WK (STUDY DURATION: 111 WK), Tumor Site: Type of Lesion: LIVER: HEPATOCELLULAR ADENOMA OR CARCINOMA) “active; positive”; (Species: RAT, Strain/Sex: F344/MALE, Route: ORAL, Dose: 0, 500, 1700, 5000 PPM IN DIET FOR 105 WK (STUDY DURATION: 110 WK), Dose: 0, 500, 1700, 5000 PPM IN DIET FOR 105 WK (STUDY DURATION: 110 WK), Tumor Site: Type of Lesion: KIDNEY(RENAL TUBULE): ADENOMA OR CARCINOMA, LIVER: HEPATOCELLULAR ADENOMA, ORAL CAVITY: SQUAMOUS CELL PAPILLOMA, SQUAMOU, Tumor Site: Type of Lesion: KIDNEY(RENAL TUBULE): ADENOMA OR CARCINOMA, LIVER: HEPATOCELLULAR ADENOMA, ORAL CAVITY: SQUAMOUS CELL PAPILLOMA, SQUAMOU) “active; positive”.

Regarding `C=C(C)C`, the carcinogen call reads like this: (Species: MOUSE, Strain/Sex: B6C3F1/FEMALE, Route: INHALATION, Dose: 0, 500, 2000, 8000 PPM 6 HR/D 5 D/WK FOR 105 WK (STUDY DURATION: 105 WK), Dose: 0, 500, 2000, 8000 PPM 6 HR/D 5 D/WK FOR 105 WK (STUDY DURATION: 105 WK)) “inactive; negative”; (Species: MOUSE, Strain/Sex: B6C3F1/MALE, Route: INHALATION, Dose: 0, 500, 2000, 8000 PPM 6 HR/D 5 D/WK FOR 105 WK (STUDY DURATION: 105 WK), Dose: 0, 500, 2000, 8000 PPM 6 HR/D 5 D/WK FOR 105 WK (STUDY DURATION: 105 WK)) “inactive; negative”; (Species: RAT, Strain/Sex: F344/N/FEMALE, Route: INHALATION, Dose: 0, 500, 2000, 8000 PPM 6 HR/D 5 D/WK FOR 105 WK (STUDY DURATION: 105 WK), Dose: 0, 500, 2000, 8000 PPM 6 HR/D 5 D/WK FOR 105 WK (STUDY DURATION: 105 WK)) “inactive; negative”; (Species: RAT, Strain/Sex: F344/N/MALE, Route: INHALATION, Dose: 0, 500, 2000;8000 PPM 6 HR/D 5 D/WK FOR 105 WK (STUDY DURATION: 105 WK), Dose: 0, 500, 2000;8000 PPM 6 HR/D 5 D/WK FOR 105 WK (STUDY DURATION: 105 WK), Tumor Site: Type of Lesion: THYROID GLAND: FOLLICULAR CELL CARCINOMA) “equivocal”.
